The source of these data is patent publication US20120101077A1, “AGGLOMERATE FORMULATIONS USEFUL IN DRY POWDER INHALERS” (Schering Corporation, priority 2009, published 2012).

A short description of data set [1]: Specific surface area of additional functional excipients. It is filed as physicochemical.
The nature of data set [2]: Particle size of micronized materials by HELOS laser diffraction. It is filed as physicochemical. To be noted: jet-milled micronized material. As for the experimental part: Micronization of the drug and lactose were performed in-house using a jet-mill (Micron Master, The Jet Pulverizer Co., Inc, Moorestown, N.J.). […] Particle size measurements of the micronized materials were performed using a HELOS® (Sympatec Inc., Clausthal-Zellerfeld, Germany) laser diffraction system.

For data set [3] the following is noted: cited from earlier work.
The conditions of data set [4]: cited from earlier work. This is another data set of the same source.

Like-named read-outs stand apart in the source and are kept apart here.

For the molecule magnesium stearate, the specific surface area in data set [1] stood at 8 m^2/g.
`C[C@@H]1C[C@H]2[C@@H]3CCC4=CC(=O)C=C[C@]4(C)[C@@]3(Cl)[C@@H](O)C[C@]2(C)[C@@]1(OC(=O)c1ccco1)C(=O)CCl` [Mometasone furoate, 9,21-Dichloro-11(beta), 17-dihydroxy-16(alpha)-methylpregna-1,4-diene-3,20-dione 17-(2 furoate)]: the “average particle size (DV50)” value in data set [2] is given as 1.1 μm. The solubility result in data set [3] (in acetone) is listed as “soluble”; in data set [3] (in chloroform), “soluble”; in data set [3] (in ethanol) it was “slightly soluble”; in data set [3] (in isopropanol), “slightly soluble”; in data set [3] (in methanol) it was “slightly soluble”; in data set [3] (in tetrahydrofuran), “freely soluble”. Moreover, the solubility entry in data set [3] (in water) is “practically insoluble”. For the same molecule, in data set [4], the “partition coefficient between octanol and water” value is on record as “greater than 5000”.
Take `OC[C@H]1O[C@@H](O[C@H]2[C@H](O)[C@@H](O)[C@@H](O)O[C@@H]2CO)[C@H](O)[C@@H](O)[C@H]1O` [micronized lactose, lactose anhydrous, NF]: the “average particle size (DV50)” value in data set [2] was determined as 2.0 μm.
